In paper PMC2639639, “Identification of Three Classes of Heteroaromatic Compounds with Activity against Intracellular Trypanosoma cruzi by Chemical Library Screening” (PLoS Neglected Tropical Diseases, 2009):
Like-named read-outs stand apart in the source and are kept apart here.

Experiments:
[1] = tested on: T. cruzi (Tulahuen strain) expressing β-galactosidase; experiment: T. cruzi growth inhibition assay (β-gal activity, infection of NIH/3T3 cells); format: cell-based, Trypanosoma cruzi
Protocol: NIH/3T3 cells and parasites were harvested, washed once and resuspended in DMEM supplemented with 2% FBS and Pen-Strep-Glut. […] Different numbers of NIH/3T3 cells were seeded in 96-well plates. After 3 h, compounds were added at the indicated concentrations and mixed by pipetting. BZN tablets (Rochagan, Roche) dissolved in DMSO and 4 µM Amphotericin B solution (Sigma-Aldrich) were used as positive controls. Different numbers of T. cruzi parasites were added in a final volume of 200 µl/well. After 4 days, 50 µl of PBS containing 0.5% of the detergent NP40 and 100 µM Chlorophenol Red-β-D-galactoside (CPRG) (Fluka) were added. Plates were incubated at 37°C for 4 h and absorbance was read at 590 nm using a Tecan Spectra Mini plate reader.
To calculate the Z′ factor, we used the formula described by Zhang et al.: Z′ = 1−[(3σc++3σc−) / |μc+−μc−|] where σc+ = standard deviation (SD) of positive control, σc− = SD of negative control, μc+ = mean of positive control, μc− = mean of negative control. Subsequently, the best ratio was used for all growth inhibition assays (50.000 cells and parasites, multiplicity of infection (MOI) 1∶1).
To determine IC50 values, β-gal activity (Abs590) was plotted against compound concentration for each compound. The IC50 was determined as the concentration at which the activity (absorbance) was half that in the absence of compound. Mean IC50 values are the average of independent experiments performed in triplicate on three different days.

[2] = tested on: NIH/3T3 cells; experiment: Cytotoxicity assay (Alamar Blue) on NIH/3T3 cells; format: cell-based; details: 4-day assay on NIH/3T3 cells
Protocol: (§1) Cells (NIH/3T3 or HepG2) were washed and plated at a density of 50,000 cells/well of 96-well plates in 200 µl and allowed to adhere for 3 h. Twenty-four hour assays were done in DMEM without phenol red supplemented with 10% FBS and Pen-Strep-Glut, while 4-day assays were done in the same medium containing 2% FBS. Drugs were added and mixed. After 1 or 4 days, 20 µl of Alamar Blue (Biosource, Invitrogen) was added. Plates were incubated for 4 h (HepG2) or 6 h (NIH/3T3) at 37°C and fluorescence was read using a Labsystems Fluoroskan II plate reader (excitation: 544 nm, emission: 590 nm) .
(§2) To determine TC50 values, fluorescence was plotted against inhibitor concentration. TC50 was determined as the concentration at which cytotoxicity (fluorescence) was half that in the absence of inhibitor.

[3] = tested on: mammalian cells; experiment: Cytotoxicity on mammalian cells (cell type not given); format: cell-based; details: cells and duration not stated
Protocol: as §1, §2

[4] = Trypanosoma cruzi, TULAHUEN, NIH3T3, other confirmed hits that retained activity at 5 µg/ml, read-out: IC50 < 1 µg/ml
[5] = Trypanosoma cruzi, TULAHUEN, NIH3T3, 96 h, β-gal T. cruzi Tulahuen, 50.000 NIH/3T3 cells and parasites (MOI 1:1), 4 days, read-out: IC50 Intracellular growth
[6] = Trypanosoma cruzi, TULAHUEN, NIH3T3, 96 h, read-out: IC50 Intracellular growth
[7] = β-gal T. cruzi Tulahuen, 50.000 NIH/3T3 cells and parasites (MOI 1:1), 4 days, read-out: IC50 Intracellular growth

Structure (SMILES): Cc1ccc2n(c1)cc(C)[n+]2CC(=O)c1ccc(-c2ccccc2)cc1.[Br-] [1-[2-(4-biphenylyl)-2-oxoethyl]-2,6-dimethylimidazo[1,2-a]pyridin-1-ium bromide]
- IC50 [1, 4]: > 1 µg/mL
- TC50 > 25 mg/ml [2]: YES (> 25 mg/ml)

Structure (SMILES): CCOC(=O)c1ccc(Nc2nc3nonc3nc2NC(C)C)cc1 [ethyl 4-{[6-(isopropylamino)[1,2,5]oxadiazolo[3,4-b]pyrazin-5-yl]amino}benzoate]
- IC50 [1, 4]: > 1 µg/mL
- TC50 > 25 mg/ml [2]: NO (> 25 mg/ml)

Structure (SMILES): O=C(NN=Cc1ccc(-c2ccc(Cl)c(Cl)c2)o1)c1ccccn1 [PCH7, N′-{[5-(3,4-dichlorophenyl)-2-furyl]methylene}-2-pyridinecarbohydrazide]
- IC50 [1, 5]: 35 ± 20 nM

Structure (SMILES): COc1ccc(NC(=S)NC(=O)c2ccco2)cc1 [N-{[(4-methoxyphenyl)amino]carbonothioyl}-2-furamide]
- IC50 [1, 4]: > 1 µg/mL
- TC50 > 25 mg/ml [2]: YES (> 25 mg/ml)

Structure (SMILES): Cc1cc(Cl)cc(C)c1OCCCCCn1ccnc1 [CX5, 1-[5-(4-chloro-2,6-dimethylphenoxy)pentyl]-1H-imidazole]
- IC50 [1, 5]: 20.5 nM

Structure (SMILES): O=C(NN=Cc1ccc(-c2cccc(Cl)c2Cl)o1)c1ccc(Br)cc1 [PCH4, 4-bromo-N′-{[5-(2,3-dichlorophenyl)-2-furyl]methylene}benzohydrazide]
- IC50 [1, 5]: > 10000 nM

Structure (SMILES): CCN(CC)c1ccc(N=Cc2cccc(C)c2)cc1 [N,N-diethyl-N'-(3-methylbenzylidene)-1,4-benzenediamine]
- IC50 [1, 4]: > 1 µg/mL
- TC50 > 25 mg/ml [2]: YES (> 25 mg/ml)

Structure (SMILES): O=C(CCCn1cnc([N+](=O)[O-])n1)Nc1ccccc1C(F)(F)F [NT9, 4-(3-nitro-1H-1,2,4-triazol-1-yl)-N-[2-(trifluoromethyl)phenyl]butanamide]
- IC50 [1, 5]: 3020 ± 1390 nM

Structure (SMILES): Cc1cc(OCCCCn2ccnc2)cc(C)c1Cl [CX3, 1-[4-(4-chloro-3,5-dimethylphenoxy)butyl]-1H-imidazole]
- IC50 [1, 5]: 5.1 nM

Structure (SMILES): O=C(Cn1cnc([N+](=O)[O-])n1)Nc1cc(Oc2cccnc2)cc([N+](=O)[O-])c1 [NT3, N-[3-nitro-5-(3-pyridinyloxy)phenyl]-2-(3-nitro-1H-1,2,4-triazol-1-yl)acetamide]
- IC50 [1, 6]: 4920 ± 1280 nM

Structure (SMILES): O=C(Cn1cnc([N+](=O)[O-])n1)Nc1ccc(Cl)cc1C(F)(F)F [NT7, N-[4-chloro-2-(trifluoromethyl)phenyl]-2-(3-nitro-1H-1,2,4-triazol-1-yl)acetamide]
- IC50 [1, 5]: 1290 ± 463 nM

Structure (SMILES): O=C(NN=Cc1ccc(-c2cccc(Cl)c2Cl)o1)c1ccncc1 [PCH3, N′-{[5-(2,3-dichlorophenyl)-2-furyl]methylene}isonicotinohydrazide]
- IC50 [1, 5]: > 10000 nM

Structure (SMILES): O=C(NN=Cc1ccc(-c2cccc(Cl)c2Cl)o1)c1cccnc1 [PCH2, N′-{[5-(2,3-dichlorophenyl)-2-furyl]methylene}nicotinohydrazide]
- IC50 [1, 5]: 1930 ± 707 nM

Structure (SMILES): O=C(Cn1cnc([N+](=O)[O-])n1)Nc1cccc(C(F)(F)F)c1 [NT5, 2-(3-nitro-1H-1,2,4-triazol-1-yl)-N-[3-(trifluoromethyl)phenyl]acetamide]
- IC50 [1, 5]: 1060 ± 385 nM

Structure (SMILES): Cc1cc(Cl)cc(C)c1OCCCCCCn1ccnc1 [CX4, 1-[6-(4-chloro-2,6-dimethylphenoxy)hexyl]-1H-imidazole]
- IC50 [1, 5]: 300 nM

Structure (SMILES): CCOc1ccc(-c2cn3c4ccccc4n(CCN(CC)CC)c3n2)cc1.Cl [{2-[2-(4-ethoxyphenyl)-9H-imidazo[1,2-a]benzimidazol-9-yl]ethyl}diethylamine hydrochloride]
- IC50 [1, 4]: > 1 µg/mL
- TC50 > 25 mg/ml [2]: NO (> 25 mg/ml)

Structure (SMILES): O=C(Cn1cnc([N+](=O)[O-])n1)Nc1cc(C(F)(F)F)ccc1Cl [NT6, N-[2-chloro-5-(trifluoromethyl)phenyl]-2-(3-nitro-1H-1,2,4-triazol-1-yl)acetamide]
- IC50 [1, 5]: 1130 ± 378 nM

Structure (SMILES): COc1ccc(-c2ccc(C=NNC(=O)c3ccccn3)o2)cc1Cl [PCH8, N′-{[5-(3-chloro-4-methoxyphenyl)-2-furyl]methylene}-2-pyridinecarbohydrazide]
- IC50 ([1]; Trypanosoma cruzi, TULAHUEN, NIH3T3, 96 h, β-gal T. cruzi Tulahuen in NIH/3T3 cells, 4 days, read-out: IC50 T. cruzi growth inhibition): 1600 nM
- IC50 [1, 5]: 1680 ± 490 nM

Structure (SMILES): Cc1cc(Cl)cc(C)c1OCCCCn1ccnc1 [CX6, 1-[4-(4-chloro-2,6-dimethylphenoxy)butyl]-1H-imidazole]
- IC50 [1, 5]: 71.6 ± 37 nM

Structure (SMILES): O=C(NN=Cc1ccc(-c2cc(Cl)ccc2Cl)o1)c1ccccc1 [PCH9, N′-{[5-(2,5-dichlorophenyl)-2-furyl]methylene}benzohydrazide]
- IC50 [1, 5]: 960 ± 300 nM

Structure (SMILES): O=C(NN=Cc1cc(Br)cc(Br)c1O)c1cccc(N2CCCC2=O)c1 [N'-(3,5-dibromo-2-hydroxybenzylidene)-3-(2-oxo-1-pyrrolidinyl)benzohydrazide]
- IC50 [1, 4]: > 1 µg/mL
- TC50 > 25 mg/ml [2]: NO (> 25 mg/ml)

Structure (SMILES): O=C(NN=Cc1ccc(-c2cccc(Cl)c2)o1)c1ccccn1 [PCH5, N′-{[5-(3-chlorophenyl)-2-furyl]methylene}-2-pyridinecarbohydrazide]
- IC50 [1, 5]: 29 ± 20 nM

Structure (SMILES): O=C(NN=Cc1ccc(-c2ccccc2Cl)o1)c1cccnc1 [PCH10, N′-{[5-(2-chlorophenyl)-2-furyl]methylene}nicotinohydrazide]
- IC50 [1, 5]: 720 ± 183 nM

Structure (SMILES): O=C(Cn1cnc([N+](=O)[O-])n1)Nc1cc(Oc2cncc(Cl)c2)cc([N+](=O)[O-])c1 [NT4, N-{3-[(5-chloro-3-pyridinyl)oxy]-5-nitrophenyl}-2-(3-nitro-1H-1,2,4-triazol-1-yl)acetamide]
- IC50 [1, 6]: 1270 ± 251 nM

Structure (SMILES): O=C(CCCn1cnc([N+](=O)[O-])n1)Nc1cc(C(F)(F)F)ccc1Cl [NT8, N-[2-chloro-5-(trifluoromethyl)phenyl]-4-(3-nitro-1H-1,2,4-triazol-1-yl)butanamide]
- IC50 [1, 5]: 983 ± 388 nM

Structure (SMILES): O=C(NN=Cc1ccc(-c2ccccc2Cl)o1)c1ccccn1 [PCH6, N′-{[5-(2-chlorophenyl)-2-furyl]methylene}-2-pyridinecarbohydrazide]
- TC50 [3]: 18500 nM
- IC50 [1, 5]: 2 nM
- IC50 [1, 7]: 2.1 nM

Structure (SMILES): Cc1cc(OCCCCCn2ccnc2)cc(C)c1Cl [CX2, 1-[5-(4-chloro-3,5-dimethylphenoxy)pentyl]-1H-imidazole]
- TC50 [3]: 19500 nM
- IC50 [1, 5]: 2 nM
- IC50 [1, 7]: 2.5 nM

Structure (SMILES): O=c1c2c3c(sc2[nH]c(=S)n1Cc1ccccc1)CCC3 [3-benzyl-2-thioxo-1,2,3,5,6,7-hexahydro-4H-cyclopenta[4,5]thieno[2,3-d]pyrimidin-4-one]
- IC50 [1, 4]: > 1 µg/mL
- TC50 > 25 mg/ml [2]: NO (> 25 mg/ml)

Structure (SMILES): Br.Cc1ccnc(Nc2nc(-c3ccccn3)cs2)c1 [4-methyl-N-[4-(2-pyridinyl)-1,3-thiazol-2-yl]-2-pyridinamine hydrobromide]
- IC50 [1, 4]: < 1 µg/mL
- TC50 > 25 mg/ml [2]: NO (> 25 mg/ml)

Structure (SMILES): COc1cc(NC(=O)Cn2cnc([N+](=O)[O-])n2)cc([N+](=O)[O-])c1 [NT2, N-(3-methoxy-5-nitrophenyl)-2-(3-nitro-1H-1,2,4-triazol-1-yl)acetamide]
- IC50 [1, 6]: 2630 ± 808 nM
